According to patent publication US10508085B2, “Compounds and methods for IDO and TDO modulation, and indications therefor” (Plexxikon Inc., priority 2016, dated 2019):

What was measured:
[1] = molecular target: T1, Human Indoleamine 2,3-dioxygenase (IDO) (Homo sapiens, UniProt P14902); test: Human IDO enzymatic assay (kynurenine level); type: biochemical; settings: 6 nM IDO, 10 μM L-Trp; geometric mean; read-out: IDO1 GMean: IC50 (μM) (Biochemical Assay)
T1 construct: His tag (N); made in house; host or cells: E. coli
Summary of the method: (§1)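 Kynurenine formed is measured after TCA quench and 50 °C hydrolysis, with % inhibition against full-reaction and no-enzyme controls (5% DMSO). IDO: 6 nM enzyme, 10 μM L-Trp, 5 μM methylene blue, 20 min; TDO: 1 nM, 350 μM L-Trp, 0.4 μM methylene blue, 70 min; both pH 6.5, room temp, E. coli-expressed His-tagged.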

[2] = molecular target: T2, Human Tryptophan 2,3-dioxygenase (TDO) (Homo sapiens, UniProt P48775); test: Human TDO enzymatic assay (kynurenine level); type: biochemical; settings: 1 nM TDO, 350 μM L-Trp; geometric mean; read-out: TDO GMean: IC50 (μM) (Biochemical Assay)
T2 construct: His tag (N); made in house; host or cells: E. coli
Summary of the method: as §1

[3] = molecular target: T3, human IDO (IDO1-expressing HEK293 cells) (Homo sapiens, UniProt P14902); test: Cell based kynurenine assay, IDO1-expressing HEK293 cell clones; settings: IDO1-expressing HEK293 cells, 24 hours incubation; geometric mean; read-out: HEK293 IDO1 Kynurenine GMean IC50 (μM) (Cellular Assay)
T3 construct: expressed in transfected cells
Summary of the method: (§2)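 Steps: seed IDO1- or TDO-expressing HEK293 cells at 2.5×10^4 per well; add compound dilutions; incubate 24 h; transfer supernatant and determine kynurenine; derive IC50 via nonlinear regression of percent inhibition.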

[4] = molecular target: T4, human TDO (TDO-expressing HEK293 cells) (Homo sapiens, UniProt P48775); test: Cell based kynurenine assay, TDO-expressing HEK293 cell clones; settings: TDO-expressing HEK293 cells, 24 hours incubation; geometric mean; read-out: HEK293 TDO Kynurenine GMean IC50 (μM) (Cellular Assay)
T4 construct: expressed in transfected cells
Summary of the method: as §2

T1 sequence (P14902 whole entry): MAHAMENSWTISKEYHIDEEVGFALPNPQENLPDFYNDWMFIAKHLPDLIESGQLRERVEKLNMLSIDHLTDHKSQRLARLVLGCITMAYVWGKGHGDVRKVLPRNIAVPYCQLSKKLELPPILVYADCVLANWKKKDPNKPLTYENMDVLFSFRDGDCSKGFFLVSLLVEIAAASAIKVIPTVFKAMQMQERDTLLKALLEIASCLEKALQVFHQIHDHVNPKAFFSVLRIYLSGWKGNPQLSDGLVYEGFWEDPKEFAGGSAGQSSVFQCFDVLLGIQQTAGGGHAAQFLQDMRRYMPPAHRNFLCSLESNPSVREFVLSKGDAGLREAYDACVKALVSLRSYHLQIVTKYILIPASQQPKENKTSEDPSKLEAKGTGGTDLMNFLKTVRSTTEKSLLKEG
T3 sequence (P14902 whole entry): as above
T2 sequence (P48775 whole entry): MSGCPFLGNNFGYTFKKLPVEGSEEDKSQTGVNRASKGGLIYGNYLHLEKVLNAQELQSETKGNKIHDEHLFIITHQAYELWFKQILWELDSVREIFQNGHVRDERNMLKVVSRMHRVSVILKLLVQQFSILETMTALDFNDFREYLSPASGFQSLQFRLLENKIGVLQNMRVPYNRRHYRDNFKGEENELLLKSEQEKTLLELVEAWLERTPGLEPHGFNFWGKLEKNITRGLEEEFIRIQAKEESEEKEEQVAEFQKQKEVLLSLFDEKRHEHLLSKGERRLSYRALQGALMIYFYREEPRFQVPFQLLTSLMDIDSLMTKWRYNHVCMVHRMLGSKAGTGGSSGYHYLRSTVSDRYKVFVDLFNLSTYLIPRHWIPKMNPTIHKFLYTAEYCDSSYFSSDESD
T4 sequence (P48775 whole entry): as above

SMILES	IC50 [1]	IC50 [2]	IC50 [3]	IC50 [4]
OC(c1cccc2cncn12)C1(F)CCC(F)(F)CC1 (centres unmarked) [Compound P-0062, imidazo[1,5-a]pyridin-5-yl(1,4,4-trifluorocyclohexyl)methanol]	0.0001 to 10 µM	0.0001 to 10 µM	> 10 µM	> 10 µM
OC(CCc1ccccc1)c1cccc2cncn12 (centres unmarked) [Compound P-0074, 1-(imidazo[1,5-a]pyridin-5-yl)-3-phenylpropan-1-ol]	0.0001 to 10 µM	10 to 100 µM	> 10 µM	> 10 µM
CC1(C(O)c2cc(Br)cc3cncn23)CCCCC1 (centres unmarked) [Compound P-0082, (7-bromoimidazo[1,5-a]pyridin-5-yl)(1-methylcyclohexyl)methanol]	0.0001 to 10 µM	0.0001 to 10 µM	0.0001 to 10 µM	0.0001 to 10 µM
CC1(C(O)c2cc(Cl)cc3cncn23)CCCCC1 (centres unmarked) [Compound P-0083, (7-Chloroimidazo[1,5-a]pyridin-5-yl)(1-methylcyclohexyl)methanol]	0.0001 to 10 µM	0.0001 to 10 µM	0.0001 to 10 µM	0.0001 to 10 µM
CC(C)(C)OC(=O)N1CCC(CC(O)c2cccc3cncn23)CC1 (stereo not drawn) [Compound P-0085, tert-butyl 4-(2-hydroxy-2-(imidazo[1,5-a]pyridin-5-yl)ethyl)piperidine-l-carboxylate]	0.0001 to 10 µM	0.0001 to 10 µM	> 10 µM	> 10 µM
CC(C)(C1CCCCC1)C(O)c1cc(Cl)cc2cncn12 (centres unmarked) [Compound P-0086, 1-(7-chloroimidazo[1,5-a]pyridin-5-yl)-2-cyclohexyl-2-methylpropan-1-ol]	0.0001 to 10 µM	0.0001 to 10 µM	0.0001 to 10 µM	0.0001 to 10 µM
OC(c1cccc2cncn12)C12CC3CC(CC(C3)C1)C2 [Compound P-0087, ((1S,3s)-adamantan-1-yl)(imidazo[1,5-a]pyridin-5-yl)methanol]	0.0001 to 10 µM	0.0001 to 10 µM	0.0001 to 10 µM	> 10 µM
CC1(C(O)c2c(Cl)ccc3cncn23)CCCCC1 (centres unmarked) [Compound P-0088, (6-chloroimidazo[1,5-a]pyridin-5-yl)(1-methylcyclohexyl)methanol]	0.0001 to 10 µM	0.0001 to 10 µM	0.0001 to 10 µM	> 10 µM
CC1(C)CN(c2cc(Cl)cc3cn[nH]c23)CCN1S(C)(=O)=O [Compound P-0089, 5-chloro-7-(3,3-dimethyl-4-(methylsulfonyl)piperazin-1-yl)-1H-indazole]	0.0001 to 10 µM	0.0001 to 10 µM	0.0001 to 10 µM	0.0001 to 10 µM
Cc1cc(N2CCN(S(C)(=O)=O)C(C)(C)C2)c2[nH]ncc2c1 [Compound P-0090, 7-(3,3-dimethyl-4-(methylsulfonyl)piperazin-1-yl)-5-methyl-1H-indazole]	0.0001 to 10 µM	0.0001 to 10 µM	0.0001 to 10 µM	0.0001 to 10 µM
CC1(C)CN(c2cc(C(F)(F)F)cc3cn[nH]c23)CCN1S(C)(=O)=O [Compound P-0091]	0.0001 to 10 µM	0.0001 to 10 µM	0.0001 to 10 µM	0.0001 to 10 µM
CC1(C)CN(c2c(F)c(Cl)cc3cn[nH]c23)CCN1S(C)(=O)=O [Compound P-0092, 5-chloro-7-(3,3-dimethyl-4-(methylsulfonyl)piperazin-1-yl)-6-fluoro-1H-indazole]	0.0001 to 10 µM	0.0001 to 10 µM	0.0001 to 10 µM	0.0001 to 10 µM
CS(=O)(=O)N1C2CCC1CN(c1cc(Cl)cc3cn[nH]c13)C2 [Compound P-0093, 5-chloro-7-(8-(methylsulfonyl)-3,8-diazabicyclo[3.2.1]octan-3-yl)-1H-indazole]	0.0001 to 10 µM	0.0001 to 10 µM	0.0001 to 10 µM	0.0001 to 10 µM
Cc1cc(N2CC3CCC(C2)N3S(C)(=O)=O)c2[nH]ncc2c1 [Compound P-0094, 5-methyl-7-(8-(methylsulfonyl)-3,8-diazabicyclo[3.2.1]octan-3-yl)-1H-indazole]	0.0001 to 10 µM	0.0001 to 10 µM	> 10 µM	0.0001 to 10 µM
CS(=O)(=O)N1C2CCC1CN(c1cc(C(F)(F)F)cc3cn[nH]c13)C2 [Compound P-0095, 7-(8-(methylsulfonyl)-3,8-diazabicyclo[3.2.1]octan-3-yl)-5-(trifluoromethyl)-1H-indazole]	0.0001 to 10 µM	0.0001 to 10 µM	0.0001 to 10 µM	0.0001 to 10 µM
CS(=O)(=O)N1C2CCC1CN(c1c(F)c(Cl)cc3cn[nH]c13)C2 [Compound P-0096, 5-chloro-6-fluoro-7-(8-(methylsulfonyl)-3,8-diazabicyclo[3.2.1]octan-3-yl)-1H-indazole]	0.0001 to 10 µM	0.0001 to 10 µM	> 10 µM	0.0001 to 10 µM
CC1(C)CN(c2cc(Cl)c(F)c3cn[nH]c23)CCN1S(C)(=O)=O [Compound P-0097, 5-chloro-7-(3,3-dimethyl-4-(methylsulfonyl)piperazin-1-yl)-4-fluoro-1H-indazole]	0.0001 to 10 µM	0.0001 to 10 µM	0.0001 to 10 µM	0.0001 to 10 µM
CC1(C(O)c2c(Cl)ccn3cncc23)CCCCC1 (centres unmarked) [Compound P-0098, (7-chloroimidazo[1,5-a]pyridin-8-yl)(1-methylcyclohexyl)methanol]	0.0001 to 10 µM	0.0001 to 10 µM	0.0001 to 10 µM	> 10 µM

More lines, now with the values ahead:

IC50 [1]	IC50 [2]	IC50 [3]	IC50 [4]	SMILES
0.0001 to 10 µM	0.0001 to 10 µM	0.0001 to 10 µM	> 10 µM	OC(c1cccc2cncn12)C1CCCCC1 (centres unmarked) [Compound P-0060, cyclohexyl(imidazo[1,5-a]pyridin-5-yl)methanol]
0.0001 to 10 µM	0.0001 to 10 µM	0.0001 to 10 µM	> 10 µM	CC1(C(O)c2cccc3cncn23)CCCCC1 (centres unmarked) [Compound P-0061, imidazo[1,5-a]pyridin-5-yl(1-methylcyclohexyl)methanol]
0.0001 to 10 µM	0.0001 to 10 µM	> 10 µM	> 10 µM	OC(c1cccc2cncn12)C1CCCCCCC1 (centres unmarked) [Compound P-0063]
10 to 100 µM	0.0001 to 10 µM	> 10 µM	> 10 µM	CC(C)(C)OC(=O)N1CCC(C(O)c2cccc3cncn23)CC1 (centres unmarked) [Compound P-0076, tert-butyl 4-(hydroxy(imidazo[1,5-a]pyridin-5-yl)methyl)piperidine-1-carboxylate]
0.0001 to 10 µM	0.0001 to 10 µM	0.0001 to 10 µM	> 10 µM	OC(CC1CCCCC1)c1cccc2cncn12 (stereo not drawn) [Compound P-0079, 2-cyclohexyl-1-(imidazo[1,5-a]pyridin-5-yl)ethan-l-ol]
0.0001 to 10 µM	0.0001 to 10 µM	> 10 µM	> 10 µM	OC(c1cccc2cncn12)C1CCC1 (centres unmarked) [Compound P-0080, cyclobutyl(imidazo[1,5-a]pyridin-5-yl)methanol]
0.0001 to 10 µM	0.0001 to 10 µM	> 10 µM	> 10 µM	OC(c1cccc2cncn12)C1CCC(F)(F)CC1 (centres unmarked) [Compound P-0081, (4,4-difluorocyclohexyl)(imidazo[1,5-a]pyridin-5-yl)methanol]
0.0001 to 10 µM	0.0001 to 10 µM	> 10 µM	> 10 µM	OC(CC1CCOCC1)c1cccc2cncn12 (stereo not drawn) [Compound P-0084, 1-(imidazo[1,5-a]pyridin-5-yl)-2-(tetrahydro-2H-pyran-4-yl)ethan-l-ol]
